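Five concentrations, 48 hours, 96-well plates. GI50: concentration for 50% inhibition of growth.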 Calls of active or inactive are those of the source. Cut-off read from the data, not from the text of the source: active = GI50 up to about 1.1 µM and inactive = higher.
How the values were obtained:
Assay in all cases: DTP human tumour cell line panel, 48 h
786-0 = system: 786-0
A498 = system: A498
A549 = system: A549
ACHN = system: ACHN
BT-549 = system: BT-549
CAKI-1 = system: CAKI-1
CCRF-CEM = system: CCRF-CEM
COLO 205 = system: COLO 205
DU-145 = system: DU-145
EKVX = system: EKVX
HCT-116 = system: HCT-116
HCT-15 = system: HCT-15
HL-60 = system: HL-60
HOP-62 = system: HOP-62
HOP-92 = system: HOP-92
HT-29 = system: HT-29
Hs-578T = system: Hs-578T
IGROV-1 = system: IGROV-1
K562 = system: K562
KM12 = system: KM12
LOX IMVI = system: LOX IMVI
M14 = system: M14
MCF7 = system: MCF7
MDA-MB-231 = system: MDA-MB-231
MDA-MB-435 = system: MDA-MB-435
MDA-N = system: MDA-N
MOLT-4 = system: MOLT-4
Malme-3M = system: Malme-3M
NCI-H226 = system: NCI-H226
NCI-H23 = system: NCI-H23
NCI-H460 = system: NCI-H460
NCI-H522 = system: NCI-H522
NCI/ADR-RES = system: NCI/ADR-RES
OVCAR-3 = system: OVCAR-3
OVCAR-4 = system: OVCAR-4
OVCAR-5 = system: OVCAR-5
OVCAR-8 = system: OVCAR-8
PC-3 = system: PC-3
RPMI-8226 = system: RPMI-8226
RXF 393 = system: RXF 393
SF-268 = system: SF-268
SF-295 = system: SF-295
SF-539 = system: SF-539
SK-MEL-28 = system: SK-MEL-28
SK-MEL-2 = system: SK-MEL-2
SK-MEL-5 = system: SK-MEL-5
SK-OV-3 = system: SK-OV-3
SN12C = system: SN12C
SNB-19 = system: SNB-19
SNB-75 = system: SNB-75
SR = system: SR
SW-620 = system: SW-620
T47D = system: T47D
TK-10 = system: TK-10
U-251 = system: U-251
UACC-257 = system: UACC-257
UACC-62 = system: UACC-62
UO-31 = system: UO-31
HCC 2998 = system: HCC 2998

SMILES: O=C(CC1C=Cc2ccccc2N1C(=O)c1ccccc1)c1ccccc1 (stereo not drawn)
- GI50 (786-0): 29.3 µM (inactive)
- GI50 (A498): 28.9 µM (inactive)
- GI50 (A549): 22.5 µM (inactive)
- GI50 (ACHN): 35.6 µM (inactive)
- GI50 (BT-549): 23.8 µM (inactive)
- GI50 (CAKI-1): 34.2 µM (inactive)
- GI50 (CCRF-CEM): 36.1 µM (inactive)
- GI50 (COLO 205): 19.5 µM (inactive)
- GI50 (DU-145): 50.8 µM (inactive)
- GI50 (EKVX): 12.6 µM (inactive)
- GI50 (HCT-116): 16 µM (inactive)
- GI50 (HCT-15): 26.2 µM
- GI50 (HL-60): 14 µM (inactive)
- GI50 (HOP-62): 30.6 µM (inactive)
- GI50 (HOP-92): 24 µM (inactive)
- GI50 (HT-29): 17.1 µM (inactive)
- GI50 (Hs-578T): 25.1 µM (inactive)
- GI50 (IGROV-1): 19.1 µM (inactive)
- GI50 (K562): 19.9 µM (inactive)
- GI50 (KM12): 19.3 µM (inactive)
- GI50 (LOX IMVI): 23.6 µM (inactive)
- GI50 (M14): 20.1 µM (inactive)
- GI50 (MCF7): 29.1 µM (inactive)
- GI50 (MDA-MB-231): 21.9 µM (inactive)
- GI50 (MDA-MB-435): 20.4 µM (inactive)
- GI50 (MDA-N): 16.1 µM (inactive)
- GI50 (MOLT-4): 11.7 µM (inactive)
- GI50 (Malme-3M): 21.7 µM (inactive)
- GI50 (NCI-H226): 34.4 µM (inactive)
- GI50 (NCI-H23): 23 µM (inactive)
- GI50 (NCI-H460): 22.8 µM (inactive)
- GI50 (NCI-H522): 13.8 µM (inactive)
- GI50 (NCI/ADR-RES): 25.8 µM (inactive)
- GI50 (OVCAR-3): 13.4 µM (inactive)
- GI50 (OVCAR-4): 34.8 µM (inactive)
- GI50 (OVCAR-5): 25.5 µM (inactive)
- GI50 (OVCAR-8): 29.2 µM (inactive)
- GI50 (PC-3): 26.5 µM (inactive)
- GI50 (RPMI-8226): 10.9 µM (inactive)
- GI50 (RXF 393): 47.2 µM (inactive)
- GI50 (SF-268): 27.1 µM (inactive)
- GI50 (SF-295): 27 µM (inactive)
- GI50 (SF-539): 22.6 µM (inactive)
- GI50 (SK-MEL-28): 30.1 µM (inactive)
- GI50 (SK-MEL-2): 17.3 µM (inactive)
- GI50 (SK-MEL-5): 13.3 µM (inactive)
- GI50 (SK-OV-3): 30.9 µM (inactive)
- GI50 (SN12C): 27 µM (inactive)
- GI50 (SNB-19): 27.7 µM (inactive)
- GI50 (SNB-75): 45.2 µM (inactive)
- GI50 (SR): 11.9 µM (inactive)
- GI50 (SW-620): 33.6 µM (inactive)
- GI50 (T47D): 44.2 µM (inactive)
- GI50 (TK-10): 36.3 µM (inactive)
- GI50 (U-251): 23.1 µM (inactive)
- GI50 (UACC-257): 20.5 µM (inactive)
- GI50 (UACC-62): 11.7 µM (inactive)
- GI50 (UO-31): 20.4 µM (inactive)

SMILES: O=S(=O)(c1ccccc1)C1CC(c2nc3ccccc3[nH]2)=NO1 (stereo not drawn)
- GI50 (A498): 43 µM (inactive)
- GI50 (A549): > 100 µM (inactive)
- GI50 (ACHN): > 100 µM (inactive)
- GI50 (BT-549): > 100 µM (inactive)
- GI50 (CAKI-1): 97.7 µM (inactive)
- GI50 (CCRF-CEM): 21.8 µM (inactive)
- GI50 (COLO 205): 37.3 µM (inactive)
- GI50 (DU-145): > 100 µM (inactive)
- GI50 (EKVX): 84.9 µM (inactive)
- GI50 (HCC 2998): > 100 µM (inactive)
- GI50 (HCT-116): 52.6 µM (inactive)
- GI50 (HCT-15): 51.3 µM
- GI50 (HOP-62): > 100 µM (inactive)
- GI50 (HOP-92): 80.4 µM (inactive)
- GI50 (HT-29): > 100 µM (inactive)
- GI50 (Hs-578T): > 100 µM (inactive)
- GI50 (IGROV-1): 16.6 µM (inactive)
- GI50 (K562): 31.6 µM (inactive)
- GI50 (LOX IMVI): > 100 µM (inactive)
- GI50 (MCF7): 53.3 µM (inactive)
- GI50 (MDA-MB-231): > 100 µM (inactive)
- GI50 (MDA-MB-435): 72.3 µM (inactive)
- GI50 (MDA-N): > 100 µM (inactive)
- GI50 (MOLT-4): 39.1 µM (inactive)
- GI50 (Malme-3M): 8.26 µM (inactive)
- GI50 (NCI-H226): > 100 µM (inactive)
- GI50 (NCI-H23): > 100 µM (inactive)
- GI50 (NCI-H460): 50.1 µM (inactive)
- GI50 (NCI-H522): 28.6 µM (inactive)
- GI50 (NCI/ADR-RES): > 100 µM (inactive)
- GI50 (OVCAR-3): 89.9 µM (inactive)
- GI50 (OVCAR-4): > 100 µM (inactive)
- GI50 (OVCAR-5): > 100 µM (inactive)
- GI50 (OVCAR-8): > 100 µM (inactive)
- GI50 (PC-3): > 100 µM (inactive)
- GI50 (RPMI-8226): 28.1 µM (inactive)
- GI50 (RXF 393): 83 µM (inactive)
- GI50 (SF-268): > 100 µM (inactive)
- GI50 (SF-295): > 100 µM (inactive)
- GI50 (SF-539): 51.4 µM (inactive)
- GI50 (SK-MEL-28): > 100 µM (inactive)
- GI50 (SK-MEL-2): > 100 µM (inactive)
- GI50 (SK-MEL-5): 70.3 µM (inactive)
- GI50 (SK-OV-3): > 100 µM (inactive)
- GI50 (SN12C): > 100 µM (inactive)
- GI50 (SNB-19): > 100 µM (inactive)
- GI50 (SNB-75): > 100 µM (inactive)
- GI50 (SR): 29.3 µM (inactive)
- GI50 (SW-620): 43.8 µM (inactive)
- GI50 (T47D): > 100 µM (inactive)
- GI50 (TK-10): 74.8 µM (inactive)
- GI50 (U-251): > 100 µM (inactive)
- GI50 (UACC-257): > 100 µM (inactive)
- GI50 (UACC-62): > 100 µM (inactive)
- GI50 (UO-31): > 100 µM (inactive)

SMILES: CC(=O)OC[C@H]1[C@@H]2C(CC[C@]13CO3)OC(=O)CC(C)[C@]2(C)CCc1ccoc1 (stereo partly drawn)
- GI50 (A498): > 100 µM (inactive)
- GI50 (A549): > 100 µM (inactive)
- GI50 (ACHN): > 100 µM (inactive)
- GI50 (BT-549): > 100 µM (inactive)
- GI50 (CAKI-1): > 100 µM (inactive)
- GI50 (CCRF-CEM): > 100 µM (inactive)
- GI50 (COLO 205): > 100 µM (inactive)
- GI50 (DU-145): > 100 µM (inactive)
- GI50 (EKVX): > 100 µM (inactive)
- GI50 (HCC 2998): > 100 µM (inactive)
- GI50 (HCT-116): > 100 µM (inactive)
- GI50 (HCT-15): > 100 µM
- GI50 (HL-60): > 100 µM (inactive)
- GI50 (HOP-62): > 100 µM (inactive)
- GI50 (HOP-92): > 100 µM (inactive)
- GI50 (HT-29): > 100 µM (inactive)
- GI50 (Hs-578T): > 100 µM (inactive)
- GI50 (IGROV-1): > 100 µM (inactive)
- GI50 (K562): > 100 µM (inactive)
- GI50 (KM12): > 100 µM (inactive)
- GI50 (LOX IMVI): > 100 µM (inactive)
- GI50 (M14): > 100 µM (inactive)
- GI50 (MCF7): > 100 µM (inactive)
- GI50 (MDA-MB-231): > 100 µM (inactive)
- GI50 (MDA-MB-435): > 100 µM (inactive)
- GI50 (MDA-N): > 100 µM (inactive)
- GI50 (MOLT-4): > 100 µM (inactive)
- GI50 (Malme-3M): > 100 µM (inactive)
- GI50 (NCI-H226): > 100 µM (inactive)
- GI50 (NCI-H23): > 100 µM (inactive)
- GI50 (NCI-H460): > 100 µM (inactive)
- GI50 (NCI-H522): > 100 µM (inactive)
- GI50 (NCI/ADR-RES): > 100 µM (inactive)
- GI50 (OVCAR-3): > 100 µM (inactive)
- GI50 (OVCAR-4): > 100 µM (inactive)
- GI50 (OVCAR-5): > 100 µM (inactive)
- GI50 (OVCAR-8): > 100 µM (inactive)
- GI50 (PC-3): > 100 µM (inactive)
- GI50 (RXF 393): > 100 µM (inactive)
- GI50 (SF-268): > 100 µM (inactive)
- GI50 (SF-295): > 100 µM (inactive)
- GI50 (SF-539): > 100 µM (inactive)
- GI50 (SK-MEL-28): > 100 µM (inactive)
- GI50 (SK-MEL-5): > 100 µM (inactive)
- GI50 (SK-OV-3): > 100 µM (inactive)
- GI50 (SN12C): > 100 µM (inactive)
- GI50 (SNB-19): > 100 µM (inactive)
- GI50 (SR): > 100 µM (inactive)
- GI50 (SW-620): > 100 µM (inactive)
- GI50 (T47D): > 100 µM (inactive)
- GI50 (TK-10): > 100 µM (inactive)
- GI50 (U-251): > 100 µM (inactive)
- GI50 (UACC-257): > 100 µM (inactive)
- GI50 (UACC-62): > 100 µM (inactive)
- GI50 (UO-31): > 100 µM (inactive)
